From ChEMBL document CHEMBL1154382, “Preliminary SAR analysis of novel antiproliferative N(6),5'-bis-ureidoadenosine derivatives” (2009)
Calls of active or inactive are those of the source.

How the values were obtained:
Format in all cases: functional
OVCAR-3 = assay: Antiproliferative activity against human OVCAR-3 cells at 10 uM assessed as cell growth inhibition relative to control
Malme-3M = assay: Antiproliferative activity against human MALME-3M cells at 10 uM assessed as cell growth inhibition relative to control
SF-295 = assay: Antiproliferative activity against human SF295 cells at 10 uM assessed as cell growth inhibition relative to control
UACC-257 = assay: Antiproliferative activity against human UACC257 cells at 10 uM assessed as cell growth inhibition relative to control
UO-31 = assay: Antiproliferative activity against human UO31 cells at 10 uM assessed as cell growth inhibition relative to control
COLO 205 = assay: Antiproliferative activity against human COLO205 cells at 10 uM assessed as cell growth inhibition relative to control
SK-OV-3 = assay: Antiproliferative activity against human SKOV3 cells at 10 uM assessed as cell growth inhibition relative to control
HL-60(TB) = assay: Antiproliferative activity against human HL-60(TB) cells at 10 uM assessed as cell growth inhibition relative to control
SK-MEL-28 = assay: Antiproliferative activity against human SK-MEL-28 cells at 10 uM assessed as cell growth inhibition relative to control
SNB-75 = assay: Antiproliferative activity against human SNB75 cells at 10 uM assessed as cell growth inhibition relative to control
KM12 = assay: Antiproliferative activity against human KM12 cells at 10 uM assessed as cell growth inhibition relative to control
SW-620 = assay: Antiproliferative activity against human SW620 cells at 10 uM assessed as cell growth inhibition relative to control
SK-MEL-5 = assay: Antiproliferative activity against human SK-MEL-5 cells at 10 uM assessed as cell growth inhibition relative to control
OVCAR-5 = assay: Antiproliferative activity against human OVCAR5 cells at 10 uM assessed as cell growth inhibition relative to control
MDA-MB-468 = assay: Antiproliferative activity against human MDA-MB-468 cells at 10 uM assessed as cell growth inhibition relative to control
T47D = assay: Antiproliferative activity against human T47D cells at 10 uM assessed as cell growth inhibition relative to control
PC-3 = assay: Antiproliferative activity against human PC3 cells at 10 uM assessed as cell growth inhibition relative to control
SF-539 = assay: Antiproliferative activity against human SF539 cells at 10 uM assessed as cell growth inhibition relative to control
OVCAR-4 = assay: Antiproliferative activity against human OVCAR4 cells at 10 uM assessed as cell growth inhibition relative to control
MOLT-4 = assay: Antiproliferative activity against human MOLT4 cells at 10 uM assessed as cell growth inhibition relative to control
HCT-116 = assay: Antiproliferative activity against human HCT116 cells at 10 uM assessed as cell growth inhibition relative to control
U-251 = assay: Antiproliferative activity against human U251 cells at 10 uM assessed as cell growth inhibition relative to control
M14 = assay: Antiproliferative activity against human M14 cells at 10 uM assessed as cell growth inhibition relative to control
UACC-62 = assay: Antiproliferative activity against human UACC62 cells at 10 uM assessed as cell growth inhibition relative to control
RPMI8266 = assay: Antiproliferative activity against human […] cells at 10 uM assessed as cell growth inhibition relative to control
EKVX = assay: Antiproliferative activity against human EKVX cells at 10 uM assessed as cell growth inhibition relative to control
ACHN = assay: Antiproliferative activity against human ACHN cells at 10 uM assessed as cell growth inhibition relative to control
SN12C = assay: Antiproliferative activity against human SN12C cells at 10 uM assessed as cell growth inhibition relative to control
CCRF-CEM = assay: Antiproliferative activity against human CCRF-CEM cells at 10 uM assessed as cell growth inhibition relative to control
BT-549 = assay: Antiproliferative activity against human BT549 cells at 10 uM assessed as cell growth inhibition relative to control
786-0 = assay: Antiproliferative activity against human 786-0 cells at 10 uM assessed as cell growth inhibition relative to control
HCT-15 = assay: Antiproliferative activity against human HCT15 cells at 10 uM assessed as cell growth inhibition relative to control
OVCAR-8 = assay: Antiproliferative activity against human OVCAR8 cells at 10 uM assessed as cell growth inhibition relative to control
MCF7 = assay: Antiproliferative activity against human MCF7 cells at 10 uM assessed as cell growth inhibition relative to control
NCI-H226 = assay: Antiproliferative activity against human NCI-H226 cells at 10 uM assessed as cell growth inhibition relative to control
DU-145 = assay: Antiproliferative activity against human DU145 cells at 10 uM assessed as cell growth inhibition relative to control
HOP-62 = assay: Antiproliferative activity against human HOP62 cells at 10 uM assessed as cell growth inhibition relative to control
NCI-H460 = assay: Antiproliferative activity against human NCI-H460 cells at 10 uM assessed as cell growth inhibition relative to control
NCI-H322M = assay: Antiproliferative activity against human NCI-H322M cells at 10 uM assessed as cell growth inhibition relative to control
CAKI-1 = assay: Antiproliferative activity against human Caki1 cells at 10 uM assessed as cell growth inhibition relative to control
SF-268 = assay: Antiproliferative activity against human SF268 cells at 10 uM assessed as cell growth inhibition relative to control
SNB-19 = assay: Antiproliferative activity against human SNB19 cells at 10 uM assessed as cell growth inhibition relative to control
MDA-MB-231 = assay: Antiproliferative activity against human MDA-MB-231 cells at 10 uM assessed as cell growth inhibition relative to control
HOP-92 = assay: Antiproliferative activity against human HOP92 cells at 10 uM assessed as cell growth inhibition relative to control
HT-29 = assay: Antiproliferative activity against human HT-29 cells at 10 uM assessed as cell growth inhibition relative to control
Hs-578T = assay: Antiproliferative activity against human Hs 578T cells at 10 uM assessed as cell growth inhibition relative to control
A549 = assay: Antiproliferative activity against human A549 cells at 10 uM assessed as cell growth inhibition relative to control
NCI-H23 = assay: Antiproliferative activity against human NCI-H23 cells at 10 uM assessed as cell growth inhibition relative to control
HCC 2998 = assay: Antiproliferative activity against human HCC2998 cells at 10 uM assessed as cell growth inhibition relative to control
IGROV-1 = assay: Antiproliferative activity against human IGROV1 cells at 10 uM assessed as cell growth inhibition relative to control
LOX IMVI = assay: Antiproliferative activity against human LOXIMVI cells at 10 uM assessed as cell growth inhibition relative to control
SK-MEL-2 = assay: Antiproliferative activity against human SK-MEL-2 cells at 10 uM assessed as cell growth inhibition relative to control
TK-10 = assay: Antiproliferative activity against human TK10 cells at 10 uM assessed as cell growth inhibition relative to control
RXF 393 = assay: Antiproliferative activity against human RXF393 cells at 10 uM assessed as cell growth inhibition relative to control
K562 = assay: Antiproliferative activity against human K562 cells at 10 uM assessed as cell growth inhibition relative to control
A498 = assay: Antiproliferative activity against human A498 cells at 10 uM assessed as cell growth inhibition relative to control
NCI-H522 = assay: Antiproliferative activity against human NCI-H522 cells at 10 uM assessed as cell growth inhibition relative to control

Measured: growth inhibition (GI)

CNC(=O)NC[C@H]1O[C@@H](n2cnc3c(NC(=O)Nc4ccccc4)ncnc32)[C@H](O)[C@@H]1O
inactive: OVCAR-3 | Malme-3M | SF-295 | UACC-257 | UO-31 | COLO 205 | SK-OV-3 | HL-60(TB) | SK-MEL-28 | SNB-75 | KM12 | SW-620 | SK-MEL-5 | OVCAR-5 | MDA-MB-468 | T47D | PC-3 | SF-539 | OVCAR-4 | MOLT-4 | HCT-116 | U-251 | M14 | UACC-62 | RPMI8266 | EKVX | ACHN | SN12C | CCRF-CEM | BT-549 | 786-0 | HCT-15 | OVCAR-8 | MCF7 | NCI-H226 | DU-145 | HOP-62 | NCI-H460 | NCI-H322M | CAKI-1 | SF-268 | SNB-19 | MDA-MB-231 | HOP-92 | HT-29 | Hs-578T | A549 | NCI-H23 | HCC 2998 | IGROV-1 | LOX IMVI | SK-MEL-2 | TK-10 | RXF 393 | K562 | A498 | NCI-H522

CNC(=O)NC[C@H]1O[C@@H](n2cnc3c(NC(=O)Nc4ccccc4)ncnc32)[C@@H]2OC(C)(C)O[C@@H]21
inactive: OVCAR-3 | Malme-3M | SF-295 | UACC-257 | UO-31 | COLO 205 | SK-OV-3 | HL-60(TB) | SK-MEL-28 | SNB-75 | KM12 | SW-620 | SK-MEL-5 | OVCAR-5 | MDA-MB-468 | T47D | PC-3 | SF-539 | OVCAR-4 | MOLT-4 | HCT-116 | U-251 | M14 | UACC-62 | RPMI8266 | EKVX | ACHN | SN12C | CCRF-CEM | BT-549 | 786-0 | HCT-15 | OVCAR-8 | MCF7 | NCI-H226 | DU-145 | HOP-62 | NCI-H460 | NCI-H322M | CAKI-1 | SF-268 | SNB-19 | MDA-MB-231 | HOP-92 | HT-29 | Hs-578T | A549 | NCI-H23 | HCC 2998 | IGROV-1 | LOX IMVI | SK-MEL-2 | TK-10 | RXF 393 | K562 | A498 | NCI-H522
